This is an account of results in patent US20080312241A1, “Cicletanine and PKC inhibitors in the treatment of pulmonary and cardiac disorders” (Gilead Sciences, Inc., priority 2007, published 2008).

Where only a bound is given, the exact number is not on record here.

The test system of data set [1] is nitric oxide in vascular tissue. In words: Nitric oxide levels in vascular tissue.
Data set [2] concerns Class III Pulmonary Hypertension. In words: Oral cicletanine 50 mg daily in Class III pulmonary hypertension (associated with left-sided heart failure). The data set is classed as in vivo, human. How it is done:
Yet another embodiment comprises the use of 50 mg oral daily doses of racemic cicletanine for treatment of Class III Pulmonary Hypertension, resulting in improved NYHA functional status.

In data set [3] the test system is patient with idiopathic pulmonary arterial hypertension. Put plainly: Human case (Example 1): oral once daily cicletanine in a patient with idiopathic pulmonary arterial hypertension (Class I). The class given is in vivo. The following applies: for 6-minute walking distance: less than 30 meters immediately prior to initiation; for levels of N-terminal pro-B-type natriuretic peptide: 4409 immediately prior to therapy. How it is done: A successful clinical trial of one of the embodiments comprised use of racemic cicletanine with the dosage initiated at 50 mg daily and titrated as tolerated to 150 mg daily in a patient with Class I Pulmonary Hypertension.
A patient with idiopathic pulmonary arterial hypertension, despite having been for some time on high doses of all three classes of approved pulmonary hypertension drugs (endothelin receptor antagonist, prostacyclin, and PDE5 inhibitor), was in heart failure and deteriorating rapidly. The patient had finally been stabilized in the intensive care unit with continuously inhaled nitric oxide. Cicletanine therapy was inititiated—oral once daily, titrating from 50 mg to 150 mg/day over three days—day 1 at 50 mg, day 2 at 100 mg, day 3 and thereafter at 150 mg. Within three days from initiation of cicletanine therapy, the patient was weaned off nitric oxide and released from the intensive care unit; they were home within 5 days of initiation of cicletanine treatment. The patient has been on the cicletanine therapy for four and a half months.
The patient has manifested a significant improvement in 6-minute walking distance, which was less than 30 meters immediately prior to cicletanine initiation, and was over 200 meters after one month of cicletanine therapy and was over 400 meters from the second month of cicletanine therapy onward.
Immediately prior to cicletanine therapy the marker was at 4409; within a few days of cicletanine therapy biomarker levels had fallen to less than 2000, and have stayed near 2000 for approximately four months.
The patient, formerly bedridden, is now able to perform housework and take regular exercise.

Data set [4] concerns WHO class II pulmonary hypertension patients. In words: Oral cicletanine 50 mg daily in WHO class II pulmonary hypertension patients. The data set is classed as in vivo, human. How it is done: When dosed orally once daily at 50 mg daily, improvements in functional status as measured by improved 12 minute walking distance were observed.
Another embodiment comprises the use of 50 mg oral daily doses of racemic cicletanine for treatment of Class II Pulmonary Hypertension, resulting in improved walking distance values.

Data set [5] relates to human subject with heart failure. Put plainly: Oral cicletanine 150 mg daily in a human subject with heart failure. The data set is classed as in vivo. As to conditions: oral 150 mg daily. How it is done: Natriuretic peptide level, a marker of heart failure is improved by oral administration of 150 mg of Cicletanine daily to a human subject with heart failure.
Data set [6] in a line: Tolerance and systemic blood pressure effects of cicletanine in patients. The class given is in vivo, human. How it is done: We have unexpectedly found good tolerance of Cicletanine in some patient populations at doses up to 400 mg. […] This is particularly effective by use of means to reduce or modulate the magnitude of the kaliuretic, natriuretic and diuretic effects of Cicletanine. As part of aspects of the present invention, and as described below, we have also invented several means of accomplishing this objective.
In accordance of the other embodiments of the present invention, an oral therapeutic formulation is disclosed wherein sufficient cicletanine is contained to improve pulmonary hemodynamics without excessive lowering of systemic blood pressure. Excessive reduction of systemic blood pressure has been a limiting side effect in many agents potentially useful for treatment of pulmonary hypertension. […] Use of appropriate delivery or other mechanisms to optimize blood levels of individual isomers will allow even higher dosing without adverse impacts on systemic blood pressures.
In accordance with some embodiments of the present invention, an oral formulation is disclosed, comprising a therapeutically effective amount of cicletanine alone or in combination with a second agent such that the overall formulation improves pulmonary hemodynamics without inappropriately lowering systemic blood pressure. […]

[7] abbreviates: 50 mg daily titrated to 150 mg daily, patient with Class I Pulmonary Hypertension.

Consider `Cc1ncc2c(c1O)COC2c1ccc(Cl)cc1` (single isomer, unassigned; (-)) [(−) cicletanine], for which the “nitric oxide enhancing effect, (−) versus (+) cicletanine” value in data set [1] (compared with (+) cicletanine) is given as “more prominent”.
Take `Cc1ncc2c(c1O)COC2c1ccc(Cl)cc1` (racemic) [racemic cicletanine]: the NYHA functional status result in data set [2] (50 mg oral daily doses, Class III Pulmonary Hypertension) was “improved”. In addition, in data set [3] (setting [7]), the “increase in walking distance” value is “more than 12 fold” and the “natriuretic peptide serum levels” value is “substantial reductions”. In addition, in data set [4] (50 mg oral daily doses, Class II Pulmonary Hypertension), the walking distance values result is given as “improved”.
In the case of `Cc1ncc2c(c1O)COC2c1ccc(Cl)cc1` (racemic) [cicletanine], in data set [5], the “Natriuretic peptide level (marker of heart failure)” value is recorded as “improved”. The “hemodynamic and clinical change from baseline” value in data set [2] (pulmonary hypertension associated with left-sided heart failure) was “favorable, long-term hemodynamic and clinical improvements”. Also, the 6-minute walking distance entry is reported as “over 200 meters” in data set [3] (after one month of cicletanine therapy (150 mg/day oral)) and “over 400 meters” in data set [3] (from the second month of cicletanine therapy onward). For the same molecule, the “levels of N-terminal pro-B-type natriuretic peptide” value in data set [3] (for approximately four months of therapy) is roughly 2000; in data set [3] (within a few days of cicletanine therapy) it was “less than 2000”. Moreover, in data set [3] (formerly bedridden, now able to perform housework and take regular exercise), the quality of life result is recorded as “improved significantly”. The “time from initiation of treatment until home” value in data set [3] (titrating from 50 mg to 150 mg/day) is no more than 5 days. For the same molecule, in data set [3] (titrating from 50 mg to 150 mg/day over three days), the “time from initiation of therapy until weaned off nitric oxide and released from the intensive care unit” value is “three”. In data set [6] (human, in vivo), the systemic blood pressure result was “tends not to lower”. In data set [6] (some patient populations), the “doses with good tolerance” value is “up to 400 mg”. Also, in data set [1], the “tachyphylaxis to its own nitric oxide effects” value is listed as “avoids tachyphylaxis”. The “levels of nitric oxide in vascular tissue” value in data set [1] (persistent across concentrations corresponding to human doses from 1 mg daily to several thousand milligrams daily) is “increased levels”. For the same molecule, in data set [4] (oral once daily 50 mg, WHO class II patients), the “12 minute walking distance (functional status)” value is “improved”.
